Measured values published in US20250281499A1, “FUSED AMINO PYRIMIDINE COMPOUNDS FOR TREATMENT OF NEUROPATHIC AND NEURO-INFLAMMATORY PAIN” (Ovid Therapeutics Inc., priority 2024, published 2025).

Tested on: hippocampal neurons
Experiment: Whole cell patch-clamp with imposed Cl− load in hippocampal neurons
Type: cell-based, Sprague Dawley
Conditions: 1 h incubation, 32 mM Cl− load; controls −47.4±2.3
Experimental: Neuronal Cultures. Hippocampal neurons were prepared from Sprague Dawley E18 embryos and plated at 450,000 per dish and maintained at 37° C. in a humidified 5% CO2 incubator for 10-25 days before experimentation (Lee et al., Nat. Neurosci. 14, 736-743 (2011)).
Neuronal Patch clamp assays. Neuronal cell culture recordings were performed in bath saline at 34° C. For gramicidin perforated-patch experiments, pipettes contained (in mM): 140 KCl and 10 HEPES, pH 7.4 KOH. For whole-cell experiments, pipettes contained (in mM): 115 K-meth-SO4, 30 KCl, 2 Mg-ATP, 4 Na-ATP, 0.4 Na-GTP, and 10 HEPES, pH 7.4 KOH. Bath saline contained the following (in mM): 140 NaCl, 2.5 KCl, 2.5 CaCl2, 2.5 MgCl2, 10 HEPES, and 11 glucose, pH 7.4 NaOH (Kontou et al., 2021, supra). All compound solutions were applied to cells using a three-barreled 700 μm pipe positioned just above the cell (Warner Instruments). […] All voltages from whole-cell experiments were corrected offline using a calculated liquid junction potential value (13.6 mV) in Clampex (Molecular Devices). For gramicidin perforated-patch experiments, intracellular Cl^− values were back-calculated using measured EGABA values and the Nernst equation: […]
5 min after break-in, an initial EGABA value was determined and the effects of a subsequent 5 min incubation with VU0463271 was assessed.

SMILES: C[C@@H]1CN(c2nc3c(c(Nc4ccc(C5CCCCC5)cc4)n2)COC3)CCO1 [Compound A, (R)—N-(4-cyclohexylphenyl)-2-(2-methylmorpholino)-5,7-dihydrofuro[3,4-d]pyrimidin-4-amine]
- basal EGABA: −59.3±2.1 mV
